US7445931B2, “Compositions and methods for enrichment of neural stem cells using ceramide analogs” (Bresagen, Inc., priority 2002, dated 2008)

Tests used:
[1] = test system: differentiating ES cells; experiment: Apoptosis (TUNEL) in ceramide-depleted differentiating ES cells and its restoration by ceramide or analogs; assay type: cell-based, mouse; conditions: for reduction of the degree of apoptosis: EB8 and NP2 stage, 25 μM FB1 or 50 nM myriocin for 48 hours
Description: Fumonisin B1 (FB1) or myriocin-treated (ceramide-depleted) differentiating ES cells were incubated with natural ceramide. To prepare the natural ceramide, 50 mg of EBs or NPs were resuspended in 500 μl of water, and after phase separation with 500 μl of CHCl3/CH3OH (1:1 by vol.) the neutral lipids were recovered from the lower phase. The neutral lipids were evaporated to dryness with a gentle stream of nitrogen and redissolved in 1 ml of CHCl3. The solution was applied to a silicic acid gel column (0.5 g) and fatty acids and cholesterol washed out with another 15 ml of CHCl3 (Dasgupta and Hogan, 2001 J. Lipid Res., 42:301-308). The ceramide fraction was then eluted with 20 ml of CHCl3/acetone (9:1, by vol.), evaporated to dryness, and the residue (approximately 6 nmoles of ceramide) dissolved in 20 μl of ethanol containing 2% dodecane (vol./vol.). Aliquots of 5 μl were mixed with 1 ml of medium, yielding a final concentration of 1.5 μM natural ceramide for induction of apoptosis (Ji et al., 1995 FEBS Lett., 358:211-214).
Differentiating ES cells at the EB8 cells were dissociated and grown for 24 hours on laminin/ornithin-coated cover slips (NP1 stage) in DMEM/F12 (50/50), supplemented with 1×N2 and 20 ng/ml FGF-2. Cells were incubated for 3 hours with 10 μM bromodeoxyuridine (BrdU) and the TUNEL assay or immunostainings performed after 5 hours of incubation. For immunostaining, cells were fixed with 4% paraformaldehyde in phosphate-buffered saline (PBS). Fixed cells were permeabilized with 0.2% Triton X-100 in PBS for 5 minutes at room temperature and immunostaining performed as described previously (Bieberich et al., 2001 J. Biol. Chem., 276:44396-44404). The nuclei were stained by treatment with 2 μg/ml Hoechst 33258 in PBS for 30 minutes at room temperature. Apoptotic nuclei were stained using the fluorescein FragEL TUNEL assay according to instructions of the manufacturer (Oncogene).
The degree of apoptosis in differentiating ES cultures was determined since it was previously proposed that ceramide elevation induces apoptosis in NPs (Bieberch et al., 2001 J. Biol. Chem., 276:44396-44404). […] Apoptosis was elevated at the EB8 stage ([…]), and was highest at the NP2 stage (35+/−5%). […] Apoptosis was restored by the addition of 30 μM N-acetyl sphingosine (C2-ceramide), 80 μM of the novel ceramide analog N-oleoyl serinol (S18), or 1 μM of natural ceramide that was extracted from differentiating ES cells.

[2] = test system: differentiating ES-J1 cells; experiment: Apoptosis (TUNEL staining, cell death) in differentiating mouse ES cells incubated with ceramide analogs; assay type: cell-based; conditions: 15 hours with 75 μM S16 or S18, or 35 μM C2-ceramide
Description: In vitro neural differentiation of mouse ES cells (ES-J1, ES-D3) followed a serum deprivation protocol as described previously (Hancock, et al., 2000 Biochem. Biophys. Res. Commun., 271: 418-421). The differentiation stages are outlined in FIG. 2. Briefly, ES cells were grown on gamma-irradiated feeder fibroblasts for four days in Knockout DMEM/15% Knockout serum replacement, supplemented with ESGRO (LIF; Chemicon; Cat No. ESG1106) at a concentration of 10^3 units/ml medium. ES cells were then grown for another four days on gelatin-coated bacterial culture dishes without a fibroblast feeder layer, and were then grown for three days in Knockout DMEM/15% heat-inactivated ES qualified Fetal Bovine Serum, supplemented with 10^3 units LIF per ml of medium. Upon trypsinization, ES cells were transferred to bacterial culture dishes without gelatin, and embryoid body (EB) formation was induced for four days in Knockout DMEM/10% heat-inactivated ES qualified FBS without LIF (EB4 stage). On the fifth day, floating and loosely attached EBs were rinsed off and transferred to tissue culture dishes. The EBs were allowed to attach to the tissue culture dish surface by incubation for another 24 hours in Knockout DMEM with 10% heat-inactivated ES qualified fetal bovine serum. Neural differentiation due to serum deprivation was induced by cultivation of the EBs for three days in DME/12 (50/50), supplemented with 1×N2 (Invitrogen/Life Technologies; Cat No. 17502, dilution of 1:100) but without serum (EB8 stage). Serum-deprived EBs were then trypsinized, plated on poly-L-ornithine/laminin-coated tissue culture dishes and grown for four days in DMEM/F12 (50/50), supplemented with N2 and 10 ng/ml FGF-2, but without serum. This incubation period is referred to as neuroprogenitor (NP) stage due to commitment of neuroepithelial precursor cells to neuroprogenitor cells, and/or due to the selective expansion of neural progenitor cells in the FGF-2 containing serum-free medium. These cells have committed during the EB stages and were expanded during the NP stage. NPs grown for 48 hours upon replating of trypsinized EBs were referred to as the NP2 stage. On the fifth day of NP formation, the medium was changed to Neurobasal (Invitrogen/Life Technologies; Cat No. 21103-049), with 5% heat-inactivated FBS, and the cells were incubated for another seven days. During this time, NPs fully differentiate to glial cells and neurons. Cells cultured for 24 hours or 96 hours upon changing the medium were referred to as the D1 or D4 stage, respectively.
ES cells were cultured and differentiated to the EB4, EB8, NP2, or D4 stage following the protocol as described above. The ceramide analog S18 was dissolved in ethanol at a concentration of 100 mM and then added to the cells at a final concentration of 75 μM in medium. The cells at the EB8 stage were incubated for 48 hours in the presence of the ceramide analog and were then transplanted into mouse brains.
Differentiating ES cells were grown on cover slips and fixed with 4% paraformaldehyde in phosphate-buffered saline (PBS). Fixed cells were permeabilized with 0.5% Triton X-100 in PBS for 5 minutes at room temperature and unspecific binding sites were saturated by incubation with 3% ovalbumin in PBS for 1 hour at 37° C. The cover slips were then incubated with 5 μg/ml primary antibody (anti-ceramide clone 15B4 mouse IgM, Alexis; anti-PAR-4 rabbit IgG, Santa Cruz; anti-PCNA rabbit IgG, Santa Cruz; anti-nestin clone 401 rat IgG, BD Pharmingen) in 0.1% ovalbumin/PBS, followed by incubation with the appropriate fluorescence-labeled secondary antibody (5 μg/ml Alexa 546 conjugated anti-mouse IgG, Molecular Probes; Alexa 488 conjugated anti-rabbit IgG, Molecular Probes, Cy3 conjugated anti-mouse IgM, Jackson) for 2 hours at 37° C. The nuclei were stained by treatment with 2 μg/ml Hoechst 33258 in PBS for 30 minutes at room temperature. […]

[3] = test system: Mouse neuroblastoma (F-11) cells; experiment: Induction of apoptosis in mouse neuroblastoma cells (Hoechst 33258 staining); assay type: cell-based; conditions: 24 hours
Description: Mouse neuroblastoma (F-11) cells were incubated for 24 hours in 0.1, 0.2, 0.5, or 1.0 μM of laurylgallate (Aldrich). Apoptosis was determined by punctate staining of condensed nuclei with Hoechst 33258 (Sigma, […] medium for 30 minutes at room temperature).

[4] = test system: differentiating ES cells (NPs), PAR-4; experiment: S18-induced apoptosis (TUNEL) in NPs after PAR-4 antisense knockdown or PAR-4-RFP overexpression; assay type: cell-based, mouse
Description: For construction of PAR-4-REP cDNA, RT-PCR was performed with the oligonucleotide primer pair sense 5′atggcgaccggcggctatcg3′ (SEQ ID NO:14) and antisense 5′ctaccttgtcagctgcccaacaac3′(SEQ ID NO:15), using the first strand cDNA generated from embryoid bodies (EB8 stage) as template for the amplification reaction. The primers were endowed with the restriction enzyme cleaving sites Eco47III (sense) and SaII (antisense) for ligation of the PAR-4 specific amplification product into the multiple cloning site of HcRFP, a vector that encodes a far-red shifted variant of red fluorescent protein (Clontech). Differentiating ES cells at the NP1 stage were transfected with the PAR-4-RFP construct using the lipofectamine 2000 procedure according to the manufacturer's instructions (Invitrogen). The transfected cells were incubated in DMEM F12 (50/50), supplemented with 1×N2 and 20 ng/ml FGF-2, and the TUNEL assay or immunostainings were performed after 48 hours of incubation and NP formation. For depletion of ceramide, differentiating ES cell were incubated with 25 μM fumonisin B1 or 50 nM myriocin 48 hours prior to transfection with the PAR-4-RFP vector, and the inhibitor maintained in the medium throughout the post-transfection period. For induction of apoptosis, the novel ceramide analog S18 (40-100 μM), N-acetyl sphingosine (C2-ceramide, 10-30 μM), or natural ceramide isolated from EBs (0.5-1.5 μM) was added 48 hours after transfection with the PAR-4-RFP cDNA, and the degree of apoptosis quantified after 15-20 hours using TUNEL assays with paraformaldehyde-fixed cells as described above.
(§1) Endogenous expression of PAR-4 was suppressed by transfection of differentiating ES cells at the NP1 stage with 2 nmoles (per well in 24 wells plate) of the morpholino-based antisense oligonucleotide 5′cgatagccgccggtcgccatgttcc3′(SEQ ID NO:16) (see Guo et al., 1998, Nature Med., 4:957-962; Guo et al., 2001 Brain Res, 903:13-25) following the instructions of the manufacturer (GeneTools) in 0.5 ml of serum-free DMEM/F-12, 1XN2 supplemented with 20 ng/ml FGF-2. For induction of apoptosis, the novel ceramide analog S18 (40-100), N-acetyl sphingosine (C2 ceramide, […], or natural ceramide isolated from EBs (0.5-1.5 μM) was added 48 hours after transfection with the anti-PAR-4 morpholino, and the degree of apoptosis quantified after 15-20 hours using TUNEL assays with paraformaldehyde-fixed cells as described above.

[5] = test system: PAR-4; experiment: PAR-4 immunoblot after transfection with PAR-4 antisense morpholino; assay type: cell-based, mouse; conditions: NPs transfected with 2 nmoles morpholino
Description: as §1
The amount of protein was determined following a modified Folin phenol reagent (Lowry) assay essentially as described in Wang and Smith (1975 Anal. Biochem., 63:414-417). Protein extracted with detergent was precipitated according to the Wessel and Fluegge method (Wessel and Flugge, 1984 Anal. Biochem, 138:141-143). SDS-PAGE was performed using the Laemmli method followed by immunoblotting (Laemmri, 1970 Nature, 227:680-685).

## CCCCCCCCCCCCC/C=C/[C@@H](O)[C@H](CO)NC(C)=O [C2-ceramide, N-acetyl sphingosine, reference compound]
[1]; FB1-treated cells at the NP2 stage
  dependence of apoptosis on PAR-4 expression: only seen in cells that expressed PAR-4
[1]; NP2 stage, 30 μM C2-ceramide, 80 μM S18, or 1 μM natural ceramide
  restoration of apoptosis in FB1-treated cells: restored
[2]; EB8 stage
  number of TUNEL stained cells: 45±10%
[2]; NP2 stage
  number of TUNEL stained cells: 70±10%

## CCCC[C@@H](C)[C@@H](OC(=O)C[C@@H](CC(=O)O)C(=O)O)[C@H](C[C@@H](C)C[C@H](O)CCCC[C@@H](O)C[C@H](O)[C@H](C)N)OC(=O)C[C@@H](CC(=O)O)C(=O)O [FB1, Fumonisin B1, reference compound]
[1]
  reduction of the degree of apoptosis: about 50%

## CCCCCCCCCCCCCCCC(=O)NC(CO)CO [S16, N-(2-hydroxy-1-(hydroxymethyl)ethyl)-palmitoylamide]
[2]; EB8 stage
  number of TUNEL stained cells: 45±10%
[2]; NP2 stage
  number of TUNEL stained cells: 70±10%

## CCCCCCCCCCCCOC(=O)c1cc(O)c(O)c(O)c1 [laurylgallate, n-dodecyl ester of 3,4,5-trihydroxybenzoic acid]
[3]; 0.5 μM laurylgallate
  cells undergoing apoptosis: 50%
[3]; 1.0 μM laurylgallate
  cells undergone apoptosis: 100%

## CCCCCCC(=O)CCCCCC/C=C/C[C@@H](O)[C@H](O)[C@@](N)(CO)C(=O)O [myriocin, reference compound]
[1]
  reduction of the degree of apoptosis: about 50%

## LEHD-CHO [reference compound]
[4]; differentiating ES cells, caspase 9 inhibitor pre-incubation
  effect of pre-incubation on apoptosis inducible with S18 or natural ceramide: suppressed apoptosis

## PAR-4 specific antisense morpholino: morpholino-based antisense oligonucleotide 5′cgatagccgccggtcgccatgttcc3′ (SEQ ID NO:16) (antisense CGATAGCCGCCGGTCGCCATGTTCC; all phosphorodiamidate morpholino (PMO)) [reference compound]
[5]
  expression level of PAR-4 relative to untransfected cells: about 25%
[4]; NPs transfected with PAR-4 specific antisense morpholino, then S18
  S18-induced apoptosis: less than 30%
